Test results taken from US11891386B2, “Indole compounds and their use” (ARIAGEN, INC., priority 2017, dated 2024).

Key:
[1] = In vivo pharmacokinetic study in Sprague-Dawley rats; settings: rat; for bioavailability: Sprague-Dawley, plasma, po, 10 mg/kg, PO (10 mg/kg) vs IV (2 mg/kg), read-out: F % (bioavailability); for % of Hepatisc Blood Flow: IV (2 mg/kg)
Experimental: This example describes pharmacokinetic (PK) studies of the various indole compounds described herein in rats, a rodent species widely used for pre-clinical toxicology evaluation. In the present studies, the test compounds were given to groups of Sprague-Dawley rats (N=3 in each group) intravenously (IV) at 2 mg/kg or orally (PO) at 10 mg/kg. IV doses were formulated in DMSO, while PO doses were formulated in a 50/50 mixture of PEG400 and Tween 80. Blood samples were collected at pre-dose and over a period of 24 hours post-dose. Plasma concentrations of the indole compounds were determined by HPLC.

[2] = system: CYP1A1 in human HepG2 cells; experiment: EROD assay (7-ethoxy-resorufin-O-deethylase), human HepG2 cells; format: cell-based; design: key to activity group based on EC50 values, in the order of increasing activity: (1) active; (2) more active; (3) most active
Experimental: (§1) CYP1A1 induction is under the control of the AhR signaling pathway. This Example describes an in vitro assay (7-ethoxy-resorufin-O-deethylase (EROD) assay) that evaluated the AhR modulating activities of the indole compounds described herein. In this assay, the indole compounds were incubated with human HepG2 cells or mouse Hepal-6 cells. The activity of CYP1A1 in the cells was measured by the conversion of substrate 7-ethoxyresorufin, with the readout being a fluorescence signal associated with the conversion product. The EC50 values of the indole compounds as well as the maximum […] induced by them in the assay were determined.
(§2) Human HepG2 cells were obtained from Sigma Aldrich (Catalog 85011430-1VL). Mouse Hepal-6 cells also were obtained from Sigma Aldrich (Catalog 92110305-1V).
(§3) Human HepG2 and Mouse Hepal-6 cells were grown to 60-80% confluency in tissue culture flasks, lifted with non-enzymatic cell dissociation solution (cell stripper), seeded in a 384-well plate at 5,000 cells per well, treated with the test compounds, and incubated for 20 hours overnight at 37° C. The treatment medium was removed and a solution of substrate 7-ethoxyresorufin (ETX) was added to initiate the reaction. The plate was incubated at 37° C. for 30 minutes. The reaction was subsequently terminated by adding tempered methanol. Fluorescent emission was measured at 590 nm with excitation at 530 nm in a FLEXSTATION III instrument (Molecular Devices).

[3] = system: CYP1A1 in mouse Hepal-6 cells; experiment: EROD assay (7-ethoxy-resorufin-O-deethylase), mouse Hepa1-6 cells; format: cell-based
Experimental: as §1, §2, §3

[4] = system: LL/2 syngeneic mouse tumor model (lung cancer); experiment: Anti-tumor activity, LL/2 syngeneic mouse tumor model; format: in vivo; settings: D28
Experimental: (§4) This example describes in vivo studies that evaluated the anti-cancer efficacy of the disclosed indole compounds in syngeneic mouse tumor models. Mice implanted subcutaneously with four types of cancer cells were treated with test indole compounds or vehicle controls as described below.
(§5) A monolayer culture of tumor cells was maintained in vitro in DMEM or RPMI1640 medium supplemented with 10% fetal bovine serum at 37° C. in an atmosphere of 5% CO2. Cells in exponential growth phase were harvested and quantitated by cell counter before tumor inoculation. The cell lines used are described in the table below.
(§6) Four subcutaneous syngeneic mouse tumor models were generated by innoculating female BALB/C or C57BL/6 mice with cancer cells at their right lower or front flank as detailed in the table below:
(§7) Each mouse was inoculated subcutaneously with tumor cells in 0.1 mL of PBS. Treatments were started when the mean tumor size reached approximately 80-120 mm^3 (around 100 mm^3). The administration of the indole compounds and the animal number in each study group are shown in the study design. The date of tumor cell inoculation was denoted as day 0.
(§8) The indole compounds were dissolved in DMSO at the final concentration of 26.7 mg/ml and stored at room temperature.
(§9) Randomization of animals was started when the mean tumor size reached approximately 90 mm^3 to form the mouse study groups. The randomization was performed based on “Matched distribution” method using the multi-task method (StudyDirector™ software, version 3.1.399.19)/randomized block design. The mouse groups (ten in each group) were treated with vehicle (DMSO) or the indole compounds at a dose of 40 mg/kg by i.p. injection, QD for 28 days or longer.
(§10) After tumor cell inoculation, the mice were checked daily for morbidity and mortality. During routine monitoring, the mice were checked for tumor growth and any effects of the treatment on behavior such as mobility, food and water consumption, body weight gain/loss (body weights were measured twice per week after randomization), eye/hair matting, and any other abnormalities. Mortality and observed clinical signs were recorded for individual mice in detail.
(§11) Tumor volumes were measured twice per week in two dimensions using a caliper, and the volume was expressed in mm^3 using the formula: V=(L×W×W)/2, where V is tumor volume, L is tumor length (the longest tumor dimension) and W is tumor width (the longest tumor dimension perpendicular to L). Dosing as well as tumor and body weight measurements was conducted in a Laminar Flow Cabinet. The body weights and tumor volumes were measured by using StudyDirector™ software (version 3.1.399.19). Dosing Holiday
(§12) Tumor growth inhibition percentage (TGI %) is an indicator for antitumor activity of a drug compound, and expressed as: TGI (%)=100×(1−T/C), where T and C are the mean tumor volume (or weight) of the treated and control groups, respectively, on a given day. […]
(§13) In Studies 1 and 3, the anti-tumor activity of ARI-001 in parallel with ARI-002 at 160 mg/kg (mpk), and the anti-tumor activity of ARI-087 in parallel with ARI-002 at 40 mpk were assessed using the EMT-6, Pan02, A20, and LL/2 models. […] In Study 5, the anti-tumor activity of ARI-087 was evaluated in parallel with ARI-143 and ARI-149 at 40 mpk. […]

[5] = system: A20 syngeneic mouse tumor model (B cell lymphoma); experiment: Anti-tumor activity, A20 syngeneic mouse tumor model; format: in vivo
Experimental: as §4, §5, §6, §7, §8, §9, §10, §11, §12, §13

[6] = system: Pan02 syngeneic mouse tumor model (pancreatic cancer); experiment: Anti-tumor activity, Pan02 syngeneic mouse tumor model; format: in vivo
Experimental: as §4, §5, §6, §7, §8
Randomization of animals was started when the mean tumor size reached approximately 90 mm^3 to form the mouse study groups. […]
as §10
Tumor volumes were measured twice per week in two dimensions using a caliper, and the volume was expressed in mm^3 using the formula: V=(L×W×W)/2, where V is tumor volume, L is tumor length (the longest tumor dimension) and W is tumor width (the longest tumor dimension perpendicular to L). […] The body weights and tumor volumes were measured by using StudyDirector™ software (version 3.1.399.19). […]
as §12
In Studies 1 and 3, the anti-tumor activity of ARI-001 in parallel with ARI-002 at 160 mg/kg (mpk), and the anti-tumor activity of ARI-087 in parallel with ARI-002 at 40 mpk were assessed using the EMT-6, Pan02, A20, and LL/2 models. […]

[7] = system: EMT-6 syngeneic mouse tumor model (breast cancer); experiment: Anti-tumor activity, EMT-6 syngeneic mouse tumor model; format: in vivo; settings: Mus musculus, D27, read-out: TGI (tumor growth inhibition)
Experimental: as §4, §5, §6, §7, §8, §9, §10, §11
Tumor growth inhibition percentage (TGI %) is an indicator for antitumor activity of a drug compound, and expressed as: TGI (%)=100×(1−T/C), where T and C are the mean tumor volume (or weight) of the treated and control groups, respectively, on a given day. Statistical analysis of the difference in mean tumor volume (MTV) among the groups was conducted using the data collected on the day when the MTV of the vehicle group reached the humane endpoints, so that TGI could be derived for all or most mice enrolled in the study.
In Studies 1 and 3, the anti-tumor activity of ARI-001 in parallel with ARI-002 at 160 mg/kg (mpk), and the anti-tumor activity of ARI-087 in parallel with ARI-002 at 40 mpk were assessed using the EMT-6, Pan02, A20, and LL/2 models. Because EMT-6 provides a fast-growing model that enables relatively quick differentiation of performance between compounds, this syngeneic mouse tumor model was chosen for the other studies. In Study 2, the anti-tumor activity of ARI-002 was compared with that of ARI-004 at 10, 40, and 80 mpk. In Study 4, the anti-tumor activity of ARI-087 was compared with that of ARI-140. In Study 5, the anti-tumor activity of ARI-087 was evaluated in parallel with ARI-143 and ARI-149 at 40 mpk. […]

Structure (SMILES) | bioavailability [1] | % of Hepatisc Blood Flow [1] | activity in the human EROD assay compared to ARI-001 / ARI-002, in words ([2]; human HepG2 cells) | activity in the mouse EROD assay, in words [3] | EC50 ([2]; EROD assay, human HepG2 cells, 20 hours treatment) | EC50 ([3]; EROD assay, 20 hours treatment) | TGI (tumor growth inhibition) ([4]; Study 1, LL/2, 160 mpk) | TGI (tumor growth inhibition) ([5]; Study 1, A20, 160 mpk, D26) | TGI (tumor growth inhibition) ([6]; Study 1, Pan02, 160 mpk, D28) | inhibition in vivo at 160 mg/kg ([7]; EMT6, 648 h, Study 1, EMT-6, 160 mpk) | IV PK profile compared to ARI-001, ARI-002, and ARI-004, in words ([1]; IV) | activity group based on EC50 values, in the order of increasing activity ([2]; human EROD assay, oxadiazole derivatives of ITE) | TGI (tumor growth inhibition) ([4]; Study 3, LL/2, 40 mpk i.p. QD) | TGI (tumor growth inhibition) ([5]; Study 3, A20, 40 mpk i.p. QD, D28) | TGI (tumor growth inhibition) ([6]; Study 3, Pan02, 40 mpk i.p. QD, D60) | inhibition in vivo at 40 mg/kg ([7]; EMT6, ip, 648 h, Study 3, EMT-6, 40 mpk i.p. QD)
CCC(=O)c1csc(C(=O)c2c[nH]c3ccc(Cl)cc23)n1 [ARI-067, 1-(2-(5-chloro-1H-indole-3-carbonyl)thiazol-4-yl)propan-1-one] | 3.5% | 350% | less active | less active |  |  |  |  |  |  |  |  |  |  |  | 
COC(=O)c1csc(C(=O)c2c[nH]c3ccccc23)n1 [ARI-001, ITE] | 0.4% | 289% |  |  | 28.9 nM | 64 nM | 65.1% D28 | 54.5% D26 | 74.2% D28 | 53% |  |  |  |  |  | 
Nc1nnc(-c2csc(C(=O)c3c[nH]c4ccccc34)n2)o1 [ARI-083, (4-(5-amino-1,3,4-oxadiazol-2-yl)thiazol-2-yl)(1H-indol-3-yl)methanone] | 1% | 45% | significantly more (about 4 to 900 times more) active than ARI-001 |  |  |  |  |  |  |  | improved IV PK profiles | more active | 24.0% D28 | 22% D28 | 2.7% D60 | 21.2%
